Each structure is given as a SMILES string.

recombinant human HPK1, sequence (Q92918 whole entry): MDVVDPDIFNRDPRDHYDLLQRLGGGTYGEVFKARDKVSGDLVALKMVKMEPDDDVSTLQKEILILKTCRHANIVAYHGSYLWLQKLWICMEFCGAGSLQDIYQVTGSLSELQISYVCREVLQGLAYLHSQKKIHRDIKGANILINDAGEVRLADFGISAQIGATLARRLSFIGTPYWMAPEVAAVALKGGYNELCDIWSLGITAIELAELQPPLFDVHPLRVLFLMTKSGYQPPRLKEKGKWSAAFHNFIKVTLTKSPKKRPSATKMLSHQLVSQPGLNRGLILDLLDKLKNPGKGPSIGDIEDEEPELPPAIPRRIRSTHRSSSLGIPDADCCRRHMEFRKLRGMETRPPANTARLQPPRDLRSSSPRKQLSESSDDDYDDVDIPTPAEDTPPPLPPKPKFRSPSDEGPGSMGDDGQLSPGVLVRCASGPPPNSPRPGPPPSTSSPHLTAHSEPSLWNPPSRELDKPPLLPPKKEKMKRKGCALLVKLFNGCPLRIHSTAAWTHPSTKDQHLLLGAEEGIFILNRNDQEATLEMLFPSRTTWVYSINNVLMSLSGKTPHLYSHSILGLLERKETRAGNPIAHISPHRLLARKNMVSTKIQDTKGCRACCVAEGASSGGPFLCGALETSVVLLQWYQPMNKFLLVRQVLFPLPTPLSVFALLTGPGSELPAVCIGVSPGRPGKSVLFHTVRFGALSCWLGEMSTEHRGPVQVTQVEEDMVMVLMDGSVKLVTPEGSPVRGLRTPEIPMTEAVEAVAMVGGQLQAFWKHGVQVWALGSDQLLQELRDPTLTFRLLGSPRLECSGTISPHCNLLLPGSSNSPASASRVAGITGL

This test has as its target recombinant human HPK1 (Homo sapiens (Human), UniProt Q92918). The experiment in a line: HPK1 kinase assay (ADP-Glo). The class given is biochemical. As to conditions: 25 μM ATP, MBP substrate. An outline of the steps:
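Activity was read as ADP formed, detected by ADP-Glo luminescence after the reaction of 5 ng recombinant human HPK1 with MBP and ATP (stocks 0.5 μg/μl and 25 μM) for 40 min at 30 °C. Buffer was Tris pH 7.5 with MgCl2, BSA and DTT, with compound in 0.5% DMSO. IC50 came from inhibition curves.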
Background: ADP-Glo first removes unused ATP, then detects ADP through luciferase.
Regarding `O=C(Nc1cc2cc(-c3c(Cl)c(F)c(Br)c4[nH]ncc34)ccn2n1)[C@@H]1C[C@@H]1F` [Example 480, (1S,2S)-N-(5-(7-bromo-5-chloro-6-fluoro-1H-indazol-4-yl)pyrazolo[1,5-a]pyridin-2-yl)-2-fluorocyclopropane-1-carboxamide], the IC50 is under 100 nM.

Take `C[C@@H](c1c(F)c(Cl)c(-c2ccc3nc(NC(=O)[C@@H]4C[C@@H]4F)cn3c2)c2cn[nH]c12)n1cnnn1` [Example 414, (1S,2S)-N-(6-(7-((S)-1-(1H-tetrazol-1-yl)ethyl)-5-chloro-6-fluoro-1H-indazol-4-yl)imidazo[1,2-a]pyridin-2-yl)-2-fluorocyclopropane-1-carboxamide]: the IC50 was under 100 nM. Take `CO[C@H](C)[C@@H](OC)c1c(F)c(Cl)c(-c2ccc3nc(NC(=O)[C@@H]4C[C@@H]4F)cn3c2)c2cn[nH]c12` [Example 440, (1S,2S)-N-(6-(5-chloro-7-((1S,2R)-1,2-dimethoxypropyl)-6-fluoro-1H-indazol-4-yl)imidazo[1,2-a]pyridin-2-yl)-2-fluorocyclopropane-1-carboxamide]: the IC50 was under 100 nM. For the molecule `Cc1ccc2[nH]ncc2c1-c1ccc2nc(NC(=O)c3ccccn3)sc2c1` [Example 12, N-(6-(5-methyl-1H-indazol-4-yl)benzo[d]thiazol-2-yl)picolinamide], the IC50 was over 1000 nM.

Take `O=C(Nc1cn2cc(-c3c(Cl)c(F)c(-n4cccc4)c4[nH]ncc34)ccc2n1)[C@@H]1C[C@@H]1F` [Example 365, (1S,2S)-N-(6-(5-chloro-6-fluoro-7-(1H-pyrrol-1-yl)-1H-indazol-4-yl)imidazo[1,2-a]pyridin-2-yl)-2-fluorocyclopropane-1-carboxamide]: the concentration for half-maximal inhibition (IC50) was under 100 nM. Turning to `C=Cc1c(F)cc2[nH]ncc2c1-c1ccn2nc(NC(=O)[C@@H]3C[C@@H]3F)cc2c1` [Example 447, (1S,2S)-2-fluoro-N-(5-(6-fluoro-5-vinyl-1H-indazol-4-yl)pyrazolo[1,5-a]pyridin-2-yl)cyclopropane-1-carboxamide], the 50% inhibitory concentration (IC50) was under 100 nM. Then `O=C(Nc1cc2cc(-c3c(Cl)c(F)c(Nc4ccncc4)c4[nH]ncc34)ccn2n1)[C@@H]1C[C@@H]1F` [Example 609, (1S,2S)-N-(5-(5-chloro-6-fluoro-7-(pyridin-4-ylamino)-1H-indazol-4-yl)pyrazolo[1,5-a]pyridin-2-yl)-2-fluorocyclopropane-1-carboxamide], with under 100 nM; and `CCOc1c(F)c(CC)c(-c2ccc3nc(NC(=O)[C@@H]4C[C@@H]4F)sc3n2)c2cn[nH]c12` [Example 178, (1S,2S)-N-(5-(7-ethoxy-5-ethyl-6-fluoro-1H-indazol-4-yl)thiazolo[5,4-b]pyridin-2-yl)-2-fluorocyclopropane-1-carboxamide], with under 100 nM; and `CC(c1c(F)c(Cl)c(-c2ccc3nc(NC(=O)[C@@H]4C[C@@H]4F)cn3c2)c2cn[nH]c12)[S+](C)[O-]` (stereo partly drawn) [Example 443, (1S,2S)-N-(6-(5-chloro-6-fluoro-7-(1-(methylsulflnyl)ethyl)-1H-indazol-4-yl)imidazo[1,2-a]pyridin-2-yl)-2-fluorocyclopropane-1-carboxamide], with under 100 nM.

As to `Cc1c(F)c(C)c2[nH]ncc2c1-c1ccc2nc(NC(=O)[C@@H]3C[C@@H]3F)sc2c1` [Example 59, (1S,2S)-2-fluoro-N-(6-(6-fluoro-5,7-dimethyl-1H-indazol-4-yl)benzo[d]thiazol-2-yl)cyclopropane-1-carboxamide], the half-maximal inhibitory concentration (IC50) was under 100 nM. Regarding `O=C(Nc1nc2ccc(-c3c(Cl)c(F)c(SCCCO)c4[nH]ncc34)cc2s1)[C@@H]1C[C@@H]1F` [Example 86, (1S,2S)-N-(6-(5-chloro-6-fluoro-7-((3-hydroxypropyl)thio)-1H-indazol-4-yl)benzo[d]thiazol-2-yl)-2-fluorocyclopropanecarboxamide], the IC50 was under 100 nM. With `Cc1ccc2[nH]ncc2c1-c1ccc2nc(NC(=O)OC(C)(C)C)sc2c1` [Example 3, tert-butyl (6-(5-methyl-1H-indazol-4-yl)benzo[d]thiazol-2-yl)carbamate], the IC50 was over 1000 nM. Consider `O=C(Nc1cn2cc(-c3c(Br)c(F)cc4[nH]ncc34)ccc2n1)C1CC1` [Example 231, N-(6-(5-bromo-6-fluoro-1H-indazol-4-yl)imidazo[1,2-a]pyridin-2-yl)cyclopropanecarboxamide], for which the IC50 was over 1000 nM. For `CN(C)c1c(F)c(Cl)c(-c2ccc3nc(NC(=O)[C@@H]4C[C@@H]4F)sc3c2)c2cn[nH]c12` [Example 69, (1S,2S)-N-(6-(5-chloro-7-(dimethylamino)-6-fluoro-1H-indazol-4-yl)benzo[d]thiazol-2-yl)-2-fluorocyclopropane-1-carboxamide] the value was under 100 nM; for `CSc1c(F)c(F)c2[nH]ncc2c1-c1ccc2nc(NC(=O)[C@@H]3C[C@@H]3F)sc2c1` [Example 117, (1S,2S)-N-(6-(6,7-difluoro-5-(methylthio)-1H-indazol-4-yl)benzo[d]thiazol-2-yl)-2-fluorocyclopropane-1-carboxamide 2,2,2-trifluoroacetate], under 100 nM; for `CNC1CCC(N(C)c2c(F)c(Cl)c(-c3ccn4nc(NC(=O)[C@@H]5C[C@@H]5F)cc4c3)c3cn[nH]c23)CC1` (stereo partly drawn) [Example 504, (1S,2S)-N-(5-(5-chloro-6-fluoro-7-(methyl((1R,4R)-4-(methylamino)cyclohexyl)amino)-1H-indazol-4-yl)pyrazolo[1,5-a]pyridin-2-yl)-2-fluorocyclopropane-1-carboxamide], under 100 nM.

In the case of `C[S+]([O-])c1c(F)cc2[nH]ncc2c1-c1cc2sc(NC(=O)[C@@H]3C[C@@H]3F)nc2cn1` (stereo partly drawn) [Example 220, (1S,2S)-2-fluoro-N-(6-(6-fluoro-5-(methylsulfinyl)-1H-indazol-4-yl)thiazolo[4,5-c]pyridin-2-yl)cyclopropane-1-carboxamide], the IC50 is over 1000 nM. On to `Cc1c(F)c([S+](C)[O-])c2[nH]ncc2c1-c1ccc2nc(NC(=O)[C@@H]3C[C@@H]3F)cn2c1` (stereo partly drawn) [Example 299, (1S,2S)-2-fluoro-N-(6-(6-fluoro-5-methyl-7-(methylsulfinyl)-1H-indazol-4-yl)imidazo[1,2-a]pyridin-2-yl)cyclopropane-1-carboxamide], for which the 50% inhibitory concentration (IC50) lay within 101 to 500 nM. For `CNC(=O)NCCOc1c(F)c(C)c(-c2ccn3nc(NC(=O)[C@@H]4C[C@@H]4F)cc3c2)c2cn[nH]c12` [Example 545, (1S,2S)-2-fluoro-N-(5-(6-fluoro-5-methyl-7-(2-(3-methylureido)ethoxy)-1H-indazol-4-yl)pyrazolo[1,5-a]pyridin-2-yl)cyclopropane-1-carboxamide] the value was under 100 nM; for `CN(C)c1c(F)c(C(F)(F)F)c(-c2ccc3nc(NC(=O)[C@@H]4C[C@@H]4F)cn3c2)c2cn[nH]c12` [Example 307, (1S,2S)-N-(6-(7-(dimethylamino)-6-fluoro-5-(trifluoromethyl)-1H-indazol-4-yl)imidazo[1,2-a]pyridin-2-yl)-2-fluorocyclopropane-1-carboxamide], under 100 nM; for `CO[C@H](C)[C@@H](OC)c1c(F)c(Cl)c(-c2ccn3nc(NC(=O)[C@@H]4C[C@@H]4F)cc3c2)c2cn[nH]c12` [Example 666, (1S,2S)-N-(5-(5-chloro-7-((1S,2R)-1,2-dimethoxypropyl)-6-fluoro-1H-indazol-4-yl)pyrazolo[1,5-a]pyridin-2-yl)-2-fluorocyclopropane-1-carboxamide], 101 to 500 nM.

Usually IC50 stands for the point on the concentration scale where inhibition reaches its midpoint.

Source of the values: patent publication US11649255B2, “Indazoles as hematopoietic progenitor kinase 1 (HPK1) inhibitors and methods using same” (1st Biotherapeutics, Inc., priority 2020, dated 2023).
